# Reference: patent publication US20230346831A1, “METHODS FOR TREATING […] USING LOW DOSE CARBON MONOXIDE” (priority 2020, published 2023)
# Experiments:
# Type in all cases: cell-based, human
# [1] = test system: oxygen consumption / mitochondrial respiration; assay: Seahorse XF Cell Mito Stress Test
# Source text: In particular, MDA-MB-231/TGL and MCF7/TGL/PQ cells treated with carbon monoxide met their energetic needs at the same rate as untreated control cells. […] In particular, MDA-MB-231/TGL and MCF7/TGL/PQ cells treated with carbon monoxide stimulated their mitochondrial respiratory chains at the same rate as untreated control cells.
# The heme group confers functionality to multiple proteins, which can include oxygen carrying, oxygen reduction, electron transfer, and other processes. To determine whether the decrease of heme levels impacts levels of oxygen-utilizing hemoproteins and therefore reduces oxygen consumption, oxygen consumption rates (OCR) was measured. However, lower OCR after 16 hours in 250 ppm CO was not detected using Seahorse XF Cell Mito Stress Tests in MCF7 and MDA-MB-231 (data not shown).
# HiF1α = assay: Western blot analysis; conditions: MCF7/TGL and MDA-MB-231/TGL cells; 250 ppm CO for 16 hours vs standard incubator
# Experimental: 1.5 × 10^6 cells were seeded in 6-cm cell culture plates with DMEM containing 10% FBS, 0.2 mM L-glutamine and 1% penicillin/streptomycin. Additionally, MCF7/TGL/pQ was cultured in media containing 0.5 µgml^-1 puromycin and 25 mM HEPES. After 16 hours of incubation, cells were lysed with RIPA buffer (0.1% SDS, 1% TritonX-100, 0.5% sodium deoxycholate, 25 mM Tris pH 8.0, 150 mM NaCl, and 1 mM EDTA) supplemented with a protease inhibitor mixture and PhosSTOP (Roche, Basel, Switzerland). Proteins were quantified with Bradford assay (Bio-Rad, Hercules CA). Equal amounts of proteins were separated with SDS-PAGE and transferred to nitrocellulose membranes. […] Protein bands were visualized by enhanced chemical luminescence (Pierce, Dallas, TX).
# To investigate whether 250 ppm CO induces hypoxia, HiF1α protein levels in low-dose CO-treated MCF7/TGL and MDA-MB-231/TGL cells were examined. […] To assess the intracellular heme levels affected by low-dose CO treatment, oxidized heme levels in the form of hemin (Fe^3+ state) were measured because free heme (Fe^2+ state) is readily oxidized and cannot be measured. […]
# SP1 = assay: quantitative real-time reverse transcription PCR; conditions: MCF7 and MDA-MB-231 cells; 250 ppm CO
# Experimental: (§1) mRNA was isolated from cells (MCF7/TGL and MDA-MB-231/TGL) grown on 6-cm dishes using RNeasy mini kit (Qiagen, Hilden, Germany) containing gDNA Eliminator spin columns. cDNA was generated using the SuperScript III First-strand synthesis system with random hexamers (Invitrogen, Carlsbad, CA), and power SYBR green (Invitrogen, Carlsbad, CA)-based quantitative real-time PCR was performed using primer specific for HRG1 (human, forward: 5′- […] -3′ (SEQ ID NO: 1), reverse: 5′- […] -3′ (SEQ ID NO: 2)) or HCP1 (human forward: 5′- […] -3′ (SEQ ID NO: 3), reverse: 5′-[…] -3′ (SEQ ID NO: 4)), CYP1B1 (human, forward: 5′TGAGTGCCGTGTGTTTCGG -3′ (SEQ ID NO: 5), reverse: 5′-[…] -3′ (SEQ ID NO: 6)), SP1 (human, forward: 5′-GTGGCCGCTACCTTCACTG -3′ (SEQ ID NO: 7), reverse: 5′-GCCCCACTCCTACTTGGTC -3′ (SEQ ID NO: 8)) with the comparative CT method (ΔΔCT; ABI).
# (§2) Heme is known to stimulate synthesis of many hemoproteins. Accordingly, hemoproteins whose expression was differentially regulated by low-dose CO in MCF7 and MDA-MB-231 cell lines were screened. CYP1B1, a heme-regulated protein, was identified as a top candidate in the list because of its following properties. First, CYP1B1 has been reported to induce the expression of SP1 transcription factor, and Sp1 interacts with Myc for synergistic transcriptional regulation for Myc target genes. […]
# CYP1B1 [2] = assay: quantitative real-time reverse transcription PCR; conditions: MCF7 and MDA-MB-231 cells; 250 ppm CO
# Experimental: as §1, §2
# CYP1B1 [3] = assay: Western blot analysis; conditions: 250 ppm CO
# Experimental: 1.5 × 10^6 cells were seeded in 6-cm cell culture plates with DMEM containing 10% FBS, 0.2 mM L-glutamine and 1% penicillin/streptomycin. Additionally, MCF7/TGL/pQ was cultured in media containing 0.5 µgml^-1 puromycin and 25 mM HEPES. After 16 hours of incubation, cells were lysed with RIPA buffer (0.1% SDS, 1% TritonX-100, 0.5% sodium deoxycholate, 25 mM Tris pH 8.0, 150 mM NaCl, and 1 mM EDTA) supplemented with a protease inhibitor mixture and PhosSTOP (Roche, Basel, Switzerland). Proteins were quantified with Bradford assay (Bio-Rad, Hercules CA). Equal amounts of proteins were separated with SDS-PAGE and transferred to nitrocellulose membranes. To visualize equal protein loading, blots were stained with Ponceau S. Blots were incubated in 5% non-fat milk in TBST, probed with primary antibodies to CYP1B1 (1:1,000, Abcam, Cambridge, United Kingdom, Cat. No. 32649), HO-1 (1:1,000, Santa Cruz Biotechnology, Dallas, TX, Cat. No. 136960), BACH1 (1:1,000, ABclonal, Woburn, MA, Cat. No. A5393), E-cadherin (1:1,1000, BD Biosciences (Cat. No. 610181), San Jose, CA), α-tubulin (1:1,000, Sigma (Cat. No. T5168), St. Louis MO), and vimentin (1:1,000, Cell Signaling Tech (Cat. No. 5741), Danvers, MA), and then were incubated with horseradish peroxidase-conjugated secondary antibodies. Protein bands were visualized by enhanced chemical luminescence (Pierce, Dallas, TX). […]
# [4] = test system: intracellular heme/hemin levels; assay: heme colorimetric assay of intracellular heme
# Experimental: Cells were grown to 75-80% confluence in 10-cm cell culture plates and collected in 1 ml cold PBS by cell scraper. 10 µl of the cells was transferred to a new tube for protein lysate preparation and protein concentration measurement. The rest of the cells were lysed in Heme extraction buffer (acetone: HCl: water = 25: 1.3: 5) as described by J. Hooda, M. Alam, & L. Zhang, J Vis Exp, e51579 (2015). Heme levels were measured using a heme colorimetric assay kit (BioVision, Milpitas, CA, Cat. No. K672-100) and normalized by the protein concentration of each sample.
# To investigate whether 250 ppm CO induces hypoxia, HiF1α protein levels in low-dose CO-treated MCF7/TGL and MDA-MB-231/TGL cells were examined. Compared to the control cells grown in a standard tissue culture incubator, HiF1α protein levels were not changed after 250 ppm CO treatment for 16 hours (FIG. 4A). To identify genes and pathways that were affected by 250 ppm CO, RNA-Seq and gene set enrichment analysis (GESA) of MCF7 and MDA-MB-231 cells were performed after 16 hours in a CO incubator or in a regular cell culture incubator. […] To assess the intracellular heme levels affected by low-dose CO treatment, oxidized heme levels in the form of hemin (Fe^3+ state) were measured because free heme (Fe^2+ state) is readily oxidized and cannot be measured. […]
# [5] = MDA-MB-231 and MCF7 cells, low dose carbon monoxide
compound,measurement,setting,value
"[C-]#[O+] [CO, Carbon monoxide]",lower oxygen consumption rates (OCR),"[1]; MCF7 and MDA-MB-231, after 16 hours in 250 ppm CO, data not shown",not detected
same,mitochondrial spare respiratory capacity,"[1]; MDA-MB-231 and MCF7 cells, carbon monoxide treatment",improved
same,mitochondrial ATP production,[1]; [5],did not affect
same,stress-induced mitochondrial maximum respiration,[1]; [5],did not affect
same,HiF1α protein levels,HiF1α,not changed
same,SP1 mRNA levels,SP1,significantly reduced
same,CYP1B1 mRNA levels,CYP1B1 [2],significantly reduced
same,CYP1B1 protein levels,CYP1B1 [3]; MCF7 and MDA-MB-231 cells,significantly reduced
same,CYP1B1 protein levels,CYP1B1 [3]; PDAC 8988T cells,reduced
same,intracellular heme/hemin levels,"[4]; MCF7 and MDA-MB-231 cells, 250 ppm CO",significantly reduced
Hemin [reference compound],intracellular heme levels with hemin supplement,"[4]; 30 µM hemin in the medium, CO-treated cells",increased
